{"source": "patent US20240239895A1", "about": "“COMBINATION THERAPY WITH A RAF INHIBITOR AND A PD-1 AXIS INHIBITOR” (Genentech, Inc., priority 2021, published 2024)", "key": {"[1]": {"tested_on": "phosphorylation of MEK and ERK in the MAPK pathway", "assay": "MEK and ERK phosphorylation in cancer cell lines", "type": "cell-based", "settings": "BRAF- or RAS-mutant melanoma, NSCLC, and CRC cell lines"}, "[2]": {"tested_on": "BRAF- or RAS-mutant melanoma, NSCLC, CRC, and thyroid cancer cell lines", "assay": "growth of cancer cell lines in vitro", "type": "cell-based"}, "[3]": {"tested_on": "BRAF- and NRAS-mutant melanoma, KRAS mutant NSCLC, BRAF mutant CRC xenografts", "assay": "mouse xenograft models, monotherapy", "type": "in vivo", "excerpt": "The in vitro antitumor effects of belvarafenib have translated into efficacy in various mouse xenograft models."}, "[4]": {"assay": "Phase I relative bioavailability and food effect study in healthy subjects", "type": "in vivo", "settings": "200 mg single dose", "method": "In another Phase I, single dose, randomized, crossover relative bioavailability and food effect study in healthy subjects, the influence of a formulation change from the Phase I to Phase II tablet on belvarafenib exposure was evaluated. A total of 18 healthy subjects were enrolled in the study and received the following randomized treatments: one 150-mg and one 50-mg Phase I tablet in a fed state, two 100-mg Phase II tablets in a fed state, or two 100-mg Phase II tablets in a fasted state, with a 18-day washout between treatments."}, "[5]": {"tested_on": "K1735 melanoma cells carrying the NRASG13D mutation", "assay": "K1735 syngeneic mouse model, tumor growth", "type": "in vivo", "excerpt": "Example 1 evaluated the efficacy of belvarafenib monotherapy, atezolizumab monotherapy, a combination therapy of belvarafenib and atezolizumab in a mutant K1735 subcutaneous mouse model.\nThe mouse strain was C3H/HeNCrlOri which is widely used for the K1735 syngeneic model. The mice were supplied by Orient Bio Inc., Korea.\nThe cell line was K1735 and was supplied by the American Type Culture Collection (ATCC). The K1735 cells are melanoma cells carrying the NRASG13D mutation. The cell culture in vitro media was Roswell Park Memorial Institute (RPMI) 10% fetal bovine serum (FBS) and incubation was at 5% C02 and 37° C. For the K1735 syngeneic model, cancer cells (1.5×10^8 cells/10 mL) were mixed with Hank's balanced salt solution (HBSS) and injected subcutaneously at 0.1 mL/head. Seven animals per group were treated with the vehicle (control), belvarafenib monotherapy at 7.5 mg/kg, belvarafenib monotherapy at 15 mg/kg, atezolizumab monotherapy at 10 mg/kg, belvarafenib (7.5 mg/kg) and atezolizumab (10 mg/kg) combination therapy, and belvarafenib (15 mg/kg) and atezolizumab (10 mg/kg) combination therapy. The experiment was done using 1st generation tumor tissue.\nBelvarafenib dihydrochloride, 99.6% purity, that was stored at room temperature was used. Dosing was based on active ingredient free base and was corrected for assay and water content. The dosing vehicle was DMSO (5%), cremophore EL (5%), and deionized water (90%). Belvarafenib for dosing was dissolved in the vehicle. Belvarafenib oral doses of 7.5 mg/kg and 15 mg/kg were evaluated as monotherapies and in combination with atezolizumab. Belvarafenib was dose daily for 21 days.\nAtezolizumab (TECENTRIQ©) that was stored at 2-8° C. was used. The dosing vehicle was saline and the dosing concentration was 5 mL/kg. An atezolizumab intravenous dose of 10 mg/kg was evaluated as a monotherapy and in combination with 7.5 mg/kg and 15 mg/kg belvarafenib. Atezolizumab was dosed three times a week for 3 weeks.\nTumor size. Tumor size was assessed by digital caliper (MITUTOYO CD-15CPX, MonotaRO Singapore, Japan) twice a week during the dosing period and calculated using the formula for an ellipsoid sphere (V=L×S2/2=mm3, where L=long diameter, and S=short diameter). Tumor size was recorded on the day of the body weight measurement and data was recorded on a tumor volume record sheet.\nRelative tumor volume (RTV). RTV(%)=tumor volume/initial tumor volume×100.\nTumor Growth (TG). TG (%)=RTVdayx/RTVday0×100.\nRelative tumor growth (RTG). The ratio of mean tumor volume on last measurement day to the mean tumor volume on Day 0.\nInhibition rate (IR). Inhibition of tumor growth was calculated relative to vehicle-treated controls. IR (%)=(1−mean relative tumor weight in treated group/mean relative tumor weight in control group)×100.\nMaximum inhibition rate (MIR). MIR was the highest recorded IR (%) among the measured inhibition rate (%).\nStatistical analysis of tumor size was performed with GraphPad Prism version 6 (GraphPad software, Inc., USA). Values were expressed as S.E.M. The significance of differences among multiple groups was assessed using a 2-way ANOVA. Post hoc pairwise comparison between groups was tested for significance using Dennett's method."}, "[6]": {"assay": "K1735 syngeneic mouse model, body weight and clinical signs", "type": "in vivo", "method": "Body weight. Body weight measurement was performed twice a week during the dosing period.\nRelative body weight. Relative body weight (%)=body weight (g)/initial body weight (g)×100.\nMaximum weight loss (MWL). MWL was the highest recorded weight loss (%) among the measured weight loss (%)."}, "[7]": {"tested_on": "tumor infiltrated CD3+CD8+ T cells", "assay": "flow cytometry of tumor infiltrated CD3+CD8+ T cells, K1735 model", "type": "in vivo, mouse", "settings": "belvarafenib 15 mg/kg oral QDx21; tumor tissue at end of experiment", "method": "Flow cytometry was used for tumor infiltrated CD3+CD8+ T cells analysis using BD FACSCanto™ IL (BD Biosciences) and FlowJo™ v 10.6.2 software (BD Biosciences). At the end of the experiment, tumor tissue, excluding mono and combination therapy groups using belvarafenib 7.5 mg/kg, were collected for evaluation of pharmacodynamics. Tumors were surgically dissected, washed twice with phosphate-buffered saline (PBS), and then chopped into 1 mm3 pieces. The chopped tumor pieces were digested in 7 mL of dissociation medium (RPMI medium with 10% FBS, collagenase type II at 2 mg/mL, collagenase type IV at 2 mg/mL, and DNase I at 1 mg/mL) for 30 minutes at 37° C., and filtered through a 70 μm cell strainer (BD Pharm, USA). The filtered cells were then washed twice with PBS. Remaining red blood cells were lysed using ammonium-chloride-potassium (ACK) solution. The cells, which had dissociated into single cells, were stained with Fe block (anti CD16/32, Ref. 14-0161-82, Invitrogen, USA) at 4° C. for 15 minutes to prevent nonspecific antibody binding. The cells were then stained with appropriate antibodies at 4° C. for 30 minutes. To assess the presence of CD3+CD8+ T cell population, cells were stained with PE Cy7-conjugated anti-CD3e (1:100 dilution) (clone: 145-2C11, Invitrogen, USA) and FITC-conjugated anti-CD8a (1:100 dilution) (clone: 53-6.7, Invitrogen, USA)."}, "[8]": {"settings": "belvarafenib 7.5 mg/kg oral QDx21"}, "[9]": {"settings": "belvarafenib 15 mg/kg oral QDx21"}}, "data": [{"molecule": "Cc1ccc2c(Nc3cccc(Cl)c3F)nccc2c1NC(=O)c1csc2c(N)ncnc12", "note": "[Belvarafenib, 4-amino-N-(1-((3-chloro-2-fluorophenyl)amino)-6-methylisoquinolin-5-yl)thieno[3,2-d]pyrimidine-7-carboxamide]", "values": [{"measurement": "inhibition of phosphorylation of MEK and ERK", "setting": "[1]", "value": "inhibits phosphorylation of MEK and ERK"}, {"measurement": "inhibition of cell line growth", "setting": "[2]", "value": "inhibit the growth"}, {"measurement": "inhibition of tumor growth", "setting": "[3]", "value": "dose-dependent inhibition of tumor growth"}, {"measurement": "serious adverse events, adverse events of special interest, deaths", "setting": "[4]", "value": "No serious adverse events, adverse events of special interest, or deaths were reported"}, {"measurement": "MIR / Max Inhib. (maximum inhibition rate)", "setting": "[5]; [8]", "value": 48.2, "unit": "%"}, {"measurement": "MTV21 (mean tumor volume on day 21 of treatment)", "setting": "[5]; [8]", "value": 2014.8, "unit": "mm^3"}, {"measurement": "RTG (relative tumor growth)", "setting": "[5]; [8]", "value": 12.2}, {"measurement": "MIR / Max Inhib. (maximum inhibition rate)", "setting": "[5]; [9]", "value": 54.7, "unit": "%"}, {"measurement": "MTV21 (mean tumor volume on day 21 of treatment)", "setting": "[5]; [9]", "value": 1816.8, "unit": "mm^3"}, {"measurement": "RTG (relative tumor growth)", "setting": "[5]; [9]", "value": 11.0}, {"measurement": "IR (Day 21) (inhibition rate, tumor growth inhibition)", "setting": "[5]; [8]", "value": 48.2, "unit": "%"}, {"measurement": "IR (Day 21) (inhibition rate, tumor growth inhibition)", "setting": "[5]; [9]", "value": 54.7, "unit": "%"}, {"measurement": "MWL / Max Wt. (maximum weight loss)", "setting": "[6]; [8]", "value": 2.8, "unit": "%"}, {"measurement": "MWL / Max Wt. (maximum weight loss)", "setting": "[6]; [9]", "value": 2.2, "unit": "%"}, {"measurement": "CD3^+CD8^+ T cells (%)", "setting": "[7]", "value": 1.27, "unit": "%"}]}]}
